Test results published in patent US7786152B2, “Compound” (priority 2002, dated 2010).

Molecular target: T1, Human 11βHSD1 (Homo sapiens, UniProt P28845)
T1 construct: the enzyme source, native hepatic enzyme compared to recombinant enzyme; tissue XenoTech H0610/Lot 0210078; host or cells: human hepatic microsomes
Assay: 11β HSD1 cortisol radioimmunoassay (RIA) with human hepatic microsomes
Type: biochemical
Conditions: read-out: % inhibition of Human 11βHSD1 @ 10 μM
Protocol: Biological Assay Development Using Human 11β-Hydroxysteroid Dehydrogenase Type 1. Standard Operating Procedure for the 11β-Hydroxysteroid Dehydrogenase Type 1 Cortisol Radioimmunoassay. 11β HSD1 Cortisol RIA
Enzyme assay buffer: 30 mM Tris-HCL, pH 7.2 containing 1 mM EDTA
Antibody binding buffer: 50 mM Tris-HCL, pH 8, containing 0.1 M NaCl and 0.1% gelatin
Dilute into assay buffer 1 in 25. Also dilute neat DMSO 1 in 25 into assay buffer for controls.
Dilute this 1 in 50 into assay buffer.
Prepare NADPH as a 1.8 mg/ml solution in assay buffer.
Mix these 3 solutions 1:1:1 to make a solution of sufficient volume for 25 μl additions to each sample. Add 0.5 μCi tritiated cortisone per 25 μl and mix the solution well.
Microsome preparation: Dilute stock 20 mg/ml solution 1 in 100 with assay buffer.
Dextran coated charcoal preparation: Make a 20 mg/ml solution in antibody binding buffer and chill on ice.
Enzyme assay: To a u-bottom polypropylene 96 well plate add:
25 μl compound dilution or diluted DMSO to controls, NSB's and blanks
10 μl 1 mM GA in DMSO (enzyme stop solution) to blanks
25 μl substrate mixture to all samples
50 μl diluted microsomes to all samples
Incubate plate for 30 min at 37° C. shaking
Add 10 μl enzyme stop solution to all wells except the blanks
Add 100 μl antibody solution to all wells except the NSB's, add antibody binding buffer to these wells
Incubate at 37° C. for 1 h
Chill plate on ice for 15 min
Add 50 μl/well charcoal solution and mix with an 8-channel pipette (4-5 aspirations)
Centrifuge at 4° C., 2000×g for 15 min
Transfer 100 μl supernatant into an Optiplate, also add 25 μl substrate mixture to 2 empty wells to indicate counting efficiency
Add 200 μl Microscint-40 to all wells and count on a Topcount
The 11β HSD1 enzyme assay was carried out following the standard operating procedure described above in u-bottom polypropylene 96 well plates or 1.5 ml Eppendorf tubes as indicated for each experiment. Subsequent to stopping the enzyme reaction, 100 μl antibody prepared in buffer 3 unless otherwise indicated was added to test samples and 100 μl buffer 3 was added to the NSB samples. The samples were incubated for 1 hour at 37° C. and the chilled on ice for 15 mins. Dextran coated charcoal (50 μl/sample) prepared to the indicated concentration in buffer 3 was added and the samples were mixed (vortex for tubes and aspiration 5 times with an 8-channel pipette for 96 well plates) and chilled for a further 10 min. The samples were centrifuged at 2000×g for 15 min at 4° C. to pellet the charcoal. Aliquots of the supernatant (100 μl) were transferred to an Optiplate and counted on the Topcount in 150-200 μl Microscint 40. In some experiments, aliquots of supernatant were transferred to scintillation vials and counted on the Tricarb LSC in 5 ml Ultima Gold scintillant.
Substrate saturation was examined. The enzyme assay was carried out exactly described in the methods section, in Buffer 3 with 10 μg/well microsomal protein and with [cold cortisone] as indicated. [3H]-cortisone was 0.5 μCi/sample throughout. The reaction was stopped after 30 min by the addition of 10 μl stop solution. The RIA was carried out exactly as indicated in the methods section.
It is reported that DMSO can both increase and reduce microsomal enzyme activity, depending on the concentration, presumably due to effects on the microsomal membranes.

T1 sequence (P28845 whole entry): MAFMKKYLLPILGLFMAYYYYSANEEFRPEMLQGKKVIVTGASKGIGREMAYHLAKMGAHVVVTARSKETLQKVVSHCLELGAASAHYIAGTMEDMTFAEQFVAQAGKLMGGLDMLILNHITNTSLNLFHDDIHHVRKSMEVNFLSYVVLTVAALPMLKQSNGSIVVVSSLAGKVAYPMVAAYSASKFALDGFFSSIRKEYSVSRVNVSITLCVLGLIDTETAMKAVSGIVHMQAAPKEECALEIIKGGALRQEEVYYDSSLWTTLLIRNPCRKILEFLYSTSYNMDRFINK

Compound	inhibition at 10 µM
Cc1[nH]c2ccc(NS(=O)(=O)c3cccc(Cl)c3C)cc2c1C [compound 1018]	66%
Cc1c(Cl)cccc1S(=O)(=O)Nc1ccc2c(c1)nc(C)n2C [compound 976]	110%
CCCc1ccc(S(=O)(=O)Nc2ccc3[nH]c(C)c(C)c3c2)cc1 [compound 1020]	64%
Cc1nc2cc(CN(Cc3ccc4sc(C)nc4c3)S(=O)(=O)c3cccc(Cl)c3C)ccc2s1 [compound 1030]	61%
Cc1nc2cc(C)c(N(S(=O)(=O)c3cccc(Cl)c3C)S(=O)(=O)c3cccc(Cl)c3C)cc2s1 [compound 997]	51%
Cc1c(Cl)cccc1S(=O)(=O)N(C)c1ccc2c(c1)sc(=O)n2C [compound 831]	28%
COc1ccc2nc(C)sc2c1NS(=O)(=O)c1cccc(Cl)c1C [compound 989]	45%
CCCc1ccc(S(=O)(=O)Nc2ccc3sc(C)nc3c2Cl)cc1 [compound 994]	83%
Cc1nc2c(Cl)c(N(S(=O)(=O)c3cccc(Cl)c3C)S(=O)(=O)c3cccc(C)c3Cl)ccc2s1 [compound 991]	51%
Cc1nc2c(NS(=O)(=O)c3cccc(Cl)c3C)c(C)ccc2s1 [compound 996]	63%
CCOC(=O)c1cc2cc(NS(=O)(=O)c3cccc(Cl)c3C)ccc2[nH]1 [compound 986]	65%
Cc1nc2c(Cl)c(NS(=O)(=O)c3cccc(Cl)c3C)c(Cl)cc2s1 [compound 1017]	60%
Cc1c(Cl)cccc1S(=O)(=O)Nc1ccc2nc(C)n(C)c2c1 [compound 975]	45%
CCOC(=O)Cn1c(C)nc2cc(NS(=O)(=O)c3cccc(Cl)c3C)ccc21 [compound 978]	60%
Cc1c(Cl)cccc1S(=O)(=O)Nc1ccc2cc[nH]c2c1 [compound 982]	53%
Cc1nc2c(Cl)c(NS(=O)(=O)c3cccc(Cl)c3C)ccc2s1 [compound 992]	61%
CCCc1ccc(S(=O)(=O)N(c2ccc3sc(C)nc3c2Cl)S(=O)(=O)c2ccc(CCC)cc2)cc1 [compound 995]	68%
Cc1[nH]c2ccc(NS(=O)(=O)c3cc(Cl)ccc3Cl)cc2c1C [compound 1019]	61%
Cc1nc2cc(C)c(NS(=O)(=O)c3cc(Cl)ccc3Cl)cc2s1 [compound 999]	55%
Cc1c(Cl)cccc1S(=O)(=O)Nc1ccc2[nH]ccc2c1 [compound 981]	40%
CCN1CCc2cc(NS(=O)(=O)c3cccc(Cl)c3C)ccc21 [compound 987]	62%
Cc1nc2cc(NS(=O)(=O)c3cccc(Cl)c3C)ccc2[nH]1 [compound 985]	61%
CCOC(=O)Cn1c(C)nc2ccc(NS(=O)(=O)c3cccc(Cl)c3C)cc21 [compound 977]	61%
Cc1nc2cc(C)c(NS(=O)(=O)c3cccc(Cl)c3C)cc2s1 [compound 998]	58%
Cc1nc2cc(CNS(=O)(=O)c3cccc(Cl)c3C)ccc2s1 [compound 1029]	78%
CC(=O)N1CCc2cc(NS(=O)(=O)c3cccc(Cl)c3C)ccc21 [compound 984]	73%
Cc1nc2ccc(C)c(NS(=O)(=O)c3cccc(Cl)c3C)c2s1 [compound 1021]	54%
